ChEMBL document CHEMBL5335870, “Discovery of Hepatitis B Virus Surface Antigen Suppressor GS-8873” (ACS Med Chem Lett, 2024)

Assays:
[1] = MRT in Beagle dog at 0.5 mg/kg, iv; type: ADME, organism-based, Canis lupus familiaris; conditions: in vivo
[2] = Volume of distribution at steady state in Rhesus monkey at 0.5 mg/kg, iv; type: ADME, organism-based, Macaca mulatta; conditions: in vivo, read-out: Vdss
[3] = AUC (0 to infinity) Sprague-Dawley rat at 1 mg/kg, iv; type: ADME, organism-based; parameters: dose 1 mg/kg, route iv; conditions: in vivo
[4] = Oral bioavailability in Cynomolgus monkey at 0.5 mg/kg; type: ADME, organism-based, Macaca fascicularis; conditions: in vivo
[5] = Oral bioavailability in Sprague-Dawley rat after 24 hrs by LC/MS/MS method; type: ADME, organism-based; conditions: in vivo
[6] = Volume of distribution at steady state in Cynomolgus monkey at 0.4 mg/kg, iv; type: ADME, organism-based, Macaca fascicularis; conditions: in vivo, read-out: Vdss
[7] = Half life in Sprague-Dawley rat at 1 mg/kg, iv; type: ADME, organism-based; conditions: in vivo
[8] = MRT in Sprague-Dawley rat at 1 mg/kg, iv; type: ADME, organism-based; conditions: in vivo
[9] = Half life in Beagle dog at 0.5 mg/kg, iv; type: ADME, organism-based, Canis lupus familiaris; conditions: in vivo
[10] = Volume of distribution at steady state in Sprague-Dawley rat at 1 mg/kg, iv; type: ADME, organism-based; conditions: in vivo, read-out: Vdss
[11] = Oral bioavailability in Sprague-Dawley rat at 3 mg/kg; type: ADME, organism-based; conditions: in vivo
[12] = Clearance in Sprague-Dawley rat at […], iv measured after 24 hrs by LC/MS/MS method; type: ADME, organism-based; conditions: in vivo
Hepatitis B virus = assay: Antiviral activity against genotype D HBV infected in sodium taurocholate co-transporting polypeptide receptor-expressing stable HepG2 cell line assessed as suppression of HBsAg level incubated for 5 days by multiplex chemiluminescent MSD assay; type: functional, organism-based; conditions: HepG2, 120 h
[13] = Half life in Cynomolgus monkey at 0.4 mg/kg, iv; type: ADME, organism-based, Macaca fascicularis; conditions: in vivo
[14] = Clearance in Cynomolgus monkey at 0.4 mg/kg, iv; type: ADME, organism-based, Macaca fascicularis; conditions: in vivo
[15] = Half life in Rhesus monkey at 0.5 mg/kg, iv; type: ADME, organism-based, Macaca mulatta; conditions: in vivo
[16] = Clearance in Sprague-Dawley rat at 1 mg/kg, iv; type: ADME, organism-based; conditions: in vivo
[17] = AUC (0 to infinity) Rhesus monkey at 0.5 mg/kg, iv; type: ADME, organism-based, Macaca mulatta; parameters: dose 0.5 mg/kg, route iv; conditions: in vivo
[18] = AUC (0 to infinity) Beagle dog at 0.5 mg/kg, iv; type: ADME, organism-based, Canis lupus familiaris; parameters: dose 0.5 mg/kg, route iv; conditions: in vivo
[19] = Clearance in Beagle dog at 0.5 mg/kg, iv; type: ADME, organism-based, Canis lupus familiaris; conditions: in vivo
[20] = AUC (0 to infinity) Cynomolgus monkey at 0.4 mg/kg, iv; type: ADME, organism-based, Macaca fascicularis; parameters: dose 0.4 mg/kg, route iv; conditions: in vivo
[21] = Oral bioavailability in Beagle dog at 0.5 mg/kg; type: ADME, organism-based, Canis lupus familiaris; conditions: in vivo
[22] = Volume of distribution at steady state in Beagle dog at 0.5 mg/kg, iv; type: ADME, organism-based, Canis lupus familiaris; conditions: in vivo, read-out: Vdss
[23] = MRT in Cynomolgus monkey at 0.4 mg/kg, iv; type: ADME, organism-based, Macaca fascicularis; conditions: in vivo
[24] = Clearance in Rhesus monkey at 0.5 mg/kg, iv; type: ADME, organism-based, Macaca mulatta; conditions: in vivo

Molecule `COCCCOc1cc2c(cc1COC)-c1cc(=O)c(C(=O)O)cn1N1[C@@H]2CCC1(C)C` has an MRT [1] of 3.6 h, a Vd [2] of 1.14 L/kg and an AUC(0-inf) [3] of 8.44 µM·h. The bioavailability [4] was 91%, the bioavailability [5] was 91% and the Vd [6] was 1.23 L/kg. It also gave a half-life [7] of 2.5 h, an MRT [8] of 2.6 h and a half-life [9] of 5.1 h. The Vd [10] was 0.69 L/kg, the bioavailability [11] was 91% and the clearance [12] was 4.5 mL/min/kg. It also gave an EC50 (Hepatitis B virus) of 4 nM, a half-life [13] of 6.7 h and a clearance [14] of 2.5 mL/min/kg. The half-life [15] was 5.5 h, the clearance [16] was 4.5 mL/min/kg and the AUC(0-inf) [17] was 6.41 µM·h. For the same molecule, the AUC(0-inf) [18] was 4.91 µM·h, the clearance [19] was 4 mL/min/kg and the AUC(0-inf) [20] was 5.93 µM·h. The bioavailability [21] was 94%, the Vd [22] was 0.85 L/kg and the MRT [23] was 8.1 h. It also gave a clearance [24] of 3 mL/min/kg.
